Results taken from patent US11382924B2, “Compounds and pharmaceutical uses thereof” (priority 2020, dated 2022).
pEC50, pIC50: −log10 of the molar value. “And” between values parts separate entries of the source, which are not always exact repeats. Identical values can stand only once. Like-named read-outs stand apart in the source and are kept apart here.

Legend:
[1] = target: human D-amino acid oxidase (Homo sapiens, UniProt P14920); assay: Inhibition of human D-amino acid oxidase; type: biochemical; details: read-out: IC50 for inhibiting human D-amino acid oxidase
Sequence of human D-amino acid oxidase (P14920 whole entry): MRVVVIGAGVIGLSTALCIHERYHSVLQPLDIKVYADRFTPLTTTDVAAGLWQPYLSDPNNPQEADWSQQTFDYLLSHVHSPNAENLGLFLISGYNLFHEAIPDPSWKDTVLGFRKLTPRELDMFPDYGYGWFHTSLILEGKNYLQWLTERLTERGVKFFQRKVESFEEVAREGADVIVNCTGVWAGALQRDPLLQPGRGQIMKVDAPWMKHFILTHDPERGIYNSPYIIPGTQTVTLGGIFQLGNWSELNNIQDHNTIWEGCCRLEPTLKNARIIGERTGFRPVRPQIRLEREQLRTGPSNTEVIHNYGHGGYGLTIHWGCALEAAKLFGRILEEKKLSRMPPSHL

[2] = target: 2019-nCoV 3CLPro (Severe acute respiratory syndrome coronavirus 2, UniProt P0DTD1); assay: 2019-nCoV 3CLPro fluorogenic protease activity assay at 3 μM (35 nM protease, pH 7.0); type: biochemical; details: for remaining activity at 3 µM / Residual Protease Activity (%) 3 μM: 3 μM sample; for remaining activity at 3 µM: read-out: Residual Protease Activity (%) 3 μM
[3] = target: T1, SARS-CoV-2 3CLPro (Severe acute respiratory syndrome coronavirus 2, UniProt P0DTD1); assay: Native-PAGE mobility shift binding with 3CLPro; details: 62.5-1000 μM sample mixed with 40 μM 3CLPro, 4° C., 3 hours
[4] = system: SARS-CoV-2; details: Choy et al., 2020; qRT-PCR, supernatant; MOI = 0.02; cited from earlier work
[5] = target: T1, SARS-CoV-2 3CLPro; assay: biochemical; details: for IC50: Table 34, read-out: IC50 (converted)
[6] = system: SARS-CoV-2; assay: SARS-CoV-2 virucidal assay in Vero E6 cells (qPCR of RdRP gene); type: cell-based; details: MOI 0.01, 24 h
[7] = 2020, cited from earlier work
[8] = target: T2, SARS-CoV-2 viral 3CL protease (Severe acute respiratory syndrome coronavirus 2, UniProt P0DTD1); assay: 3CL protease activity assay, concentration series of SNB01 (IC50); type: biochemical
[9] = target: T2, SARS-CoV-2 viral 3CL protease; assay: biochemical; details: read-out: Residual Protease Activity (%) 1 μM
[10] = IC50, Table 34, final DMSO concentration 0.05%
[11] = 50% inhibition concentration (IC50) against SARS-CoV-2 3CLPro, samples of Table 34, 50 nM protease, 6 μM substrate

O=C(O)c1cc(O)c(O)c(OC(=O)c2cc(O)c(O)c(OC(=O)c3cc(O)c(O)c(O)c3)c2)c1 [Compound 14]
pIC50 [1]: 6.52

O=C(O)c1cc(O)c(O)c(OC(=O)c2cc(O)c(O)c(OC(=O)c3cc(O)c(O)c(OC(=O)c4cc(O)c(O)c(OC(=O)c5cc(O)c(O)c(O)c5)c4)c3)c2)c1 [Compound 18]
pIC50 [1]: 6.92 | remaining activity at 3 µM [2]: 56% | inhibition at 3 µM ([2]; 3 μM, read-out: inhibition activity against 2019-nCoV 3CLpro): 44%

O=C(O)c1cc(O)c(O)c(O)c1 [GA, gallic acid, reference compound]
binding to 3CLPro by native-PAGE mobility shift [3]: no significant binding

Cc1cccc(C)c1OCC(=O)N[C@@H](Cc1ccccc1)[C@@H](O)C[C@H](Cc1ccccc1)NC(=O)[C@H](C(C)C)N1CCCNC1=O [Lopinavir]
pEC50 [4]: 4.58 | Therapeutic Index (CC50/EC50) [4]: 1.906

O=C(Oc1cc(OC(=O)c2cc(O)c(O)c(OC(=O)c3cc(O)c(O)c(OC(=O)c4cc(O)c(O)c(O)c4)c3)c2)cc(OC(=O)c2cc(O)c(O)c(OC(=O)c3cc(O)c(O)c(OC(=O)c4cc(O)c(O)c(O)c4)c3)c2)c1)c1cc(O)c(O)c(OC(=O)c2cc(O)c(O)c(OC(=O)c3cc(O)c(O)c(O)c3)c2)c1 [Phloroglucinol 9G]
pIC50 [5, 10]: 5.84 | IC50 ([5]; final DMSO concentration 0.05%): 1450 nM

O=C(Oc1cc(OC(=O)c2cc(O)c(O)c(OC(=O)c3cc(O)c(O)c(OC(=O)c4cc(O)c(O)c(OC(=O)c5cc(O)c(O)c(OC(=O)c6cc(O)c(O)c(O)c6)c5)c4)c3)c2)cc(OC(=O)c2cc(O)c(O)c(OC(=O)c3cc(O)c(O)c(OC(=O)c4cc(O)c(O)c(OC(=O)c5cc(O)c(O)c(OC(=O)c6cc(O)c(O)c(O)c6)c5)c4)c3)c2)c1)c1cc(O)c(O)c(OC(=O)c2cc(O)c(O)c(OC(=O)c3cc(O)c(O)c(OC(=O)c4cc(O)c(O)c(OC(=O)c5cc(O)c(O)c(O)c5)c4)c3)c2)c1 [Phloroglucinol 15G]
IC50 ([5]; final DMSO concentration 0.40%): 934 nM

CCC(CC)COC(=O)[C@H](C)N[P@](=O)(OC[C@H]1O[C@@](C#N)(c2ccc3c(N)ncnn23)[C@H](O)[C@@H]1O)Oc1ccccc1 [Remdesivir]
EC99 against SARS-CoV-2 infection ([6]; Vero E6, cell layer): 15 µM and 15.000 µM | EC99 against SARS-CoV-2 infection ([6]; Vero E6, supernatant): 15 µM and 15.000 µM | CC50 ([7]; Choy et al.): > 100000 nM | CC50 ([7]; Jeon et al.): > 25000 nM | CC50 ([7]; Pruijssers et al.): > 10000 nM | CC50 ([7]; Runfeng et al.): 111000 nM | CC50 ([7]; Wang et al.): > 100000 nM

O=C(OC[C@H]1O[C@@H](OC(=O)c2cc(O)c(O)c(OC(=O)c3cc(O)c(O)c(O)c3)c2)[C@H](OC(=O)c2cc(O)c(O)c(OC(=O)c3cc(O)c(O)c(O)c3)c2)[C@@H](OC(=O)c2cc(O)c(O)c(OC(=O)c3cc(O)c(O)c(O)c3)c2)[C@@H]1OC(=O)c1cc(O)c(O)c(OC(=O)c2cc(O)c(O)c(O)c2)c1)c1cc(O)c(O)c(OC(=O)c2cc(O)c(O)c(O)c2)c1 [SNB01]
pIC50 [8]: ~6.32

O=C(OC[C@H]1O[C@H](OC(=O)c2cc(O)c(O)c(O)c2)[C@H](OC(=O)c2cc(O)c(O)c(O)c2)[C@@H](OC(=O)c2cc(O)c(O)c(O)c2)[C@@H]1OC(=O)c1cc(O)c(O)c(O)c1)c1cc(O)c(O)c(O)c1 [Sample 1]
remaining activity at 3 µM [2]: 52%

O=C(OC[C@H]1O[C@@H](OC(=O)c2cc(O)c(O)c(O)c2)[C@H](OC(=O)c2cc(O)c(O)c(O)c2)[C@@H](OC(=O)c2cc(O)c(O)c(O)c2)[C@@H]1OC(=O)c1cc(O)c(O)c(O)c1)c1cc(O)c(O)c(O)c1 [Sample 2, (2S,3R,4S,5R,6R)-3,4,5-tris(3,4,5-trihydroxybenzoyloxy)-6-((3,4,5-trihydroxybenzoyloxy)methyl)oxan-2-yl 3,4,5-trihydroxybenzoate]
remaining activity at 1 µM [9]: 57% | remaining activity at 3 µM [2]: 55%

O=C(OC[C@H]1O[C@H](OC(=O)c2cc(O)c(O)c(OC(=O)c3cc(O)c(O)c(O)c3)c2)[C@H](OC(=O)c2cc(O)c(O)c(OC(=O)c3cc(O)c(O)c(O)c3)c2)[C@@H](OC(=O)c2cc(O)c(O)c(OC(=O)c3cc(O)c(O)c(O)c3)c2)[C@@H]1OC(=O)c1cc(O)c(O)c(OC(=O)c2cc(O)c(O)c(O)c2)c1)c1cc(O)c(O)c(OC(=O)c2cc(O)c(O)c(O)c2)c1 [Sample 3]
remaining activity at 1 µM ([9]; 1 μM sample): 39% | pIC50 [5, 11]: > 6.05 | pIC50 [5, 10]: 6.18 | Residual Protease Activity (%) 3 μM [2]: −2%

O=C(OC[C@H]1O[C@@H](OC(=O)c2cc(O)c(O)c(OC(=O)c3cc(O)c(O)c(O)c3)c2)[C@H](OC(=O)c2cc(O)c(O)c(OC(=O)c3cc(O)c(O)c(O)c3)c2)[C@@H](OC(=O)c2cc(O)c(O)c(OC(=O)c3cc(O)c(O)c(O)c3)c2)[C@@H]1OC(=O)c1cc(O)c(O)c(OC(=O)c2cc(O)c(O)c(O)c2)c1)c1cc(O)c(O)c(OC(=O)c2cc(O)c(O)c(O)c2)c1 [Sample 4, (2S,3R,4S,5R,6R)-3,4,5-tris(3,4-dihydroxy-5-(3,4,5-trihydroxybenzoyloxy)benzoyloxy)-6-((3,4-dihydroxy-5-(3,4,5-trihydroxybenzoyloxy)benzoyloxy)methyl)oxan-2-yl 3,4-dihydroxy-5-(3,4,5-trihydroxybenzoyloxy)benzoate]
remaining activity at 1 µM ([9]; 1 μM sample): 43% | pIC50 [5, 11]: > 6.05 | pIC50 [5, 10]: 6.09 | binding to 3CLPro by native-PAGE mobility shift [3]: significant binding | Residual Protease Activity (%) 3 μM [2]: −9%

O=C(OC[C@H]1O[C@@H](OC(=O)c2cc(O)c(O)c(OC(=O)c3cc(O)c(O)c(OC(=O)c4cc(O)c(O)c(O)c4)c3)c2)[C@H](OC(=O)c2cc(O)c(O)c(OC(=O)c3cc(O)c(O)c(OC(=O)c4cc(O)c(O)c(O)c4)c3)c2)[C@@H](OC(=O)c2cc(O)c(O)c(OC(=O)c3cc(O)c(O)c(OC(=O)c4cc(O)c(O)c(O)c4)c3)c2)[C@@H]1OC(=O)c1cc(O)c(O)c(OC(=O)c2cc(O)c(O)c(OC(=O)c3cc(O)c(O)c(O)c3)c2)c1)c1cc(O)c(O)c(OC(=O)c2cc(O)c(O)c(OC(=O)c3cc(O)c(O)c(O)c3)c2)c1 [Sample 6, (2S,3R,4S,5R,6R)-6-(((3-((3,4-dihydroxy-5-((3,4,5-trihydroxybenzoyl)oxy)benzoyl)oxy)-4,5-dihydroxybenzoyl)oxy)methyl)tetrahydro-2H-pyran-2,3,4,5-tetrayl tetrakis(3-((3,4-dihydroxy-5-((3,4,5-trihydroxybenzoyl)oxy)benzoyl)oxy)-4,5-dihydroxybenzoate)]
remaining activity at 1 µM ([9]; 1 μM sample): 39% | pIC50 [5, 11]: > 6.22 | pIC50 [5, 10]: 6.22 | IC50 ([5]; final DMSO concentration 0.05%): 602 nM | binding to 3CLPro by native-PAGE mobility shift [3]: significant binding

O=C(Oc1ccccc1)c1cc(O)c(O)c(OC(=O)c2cc(O)c(O)c(OC(=O)c3cc(O)c(O)c(O)c3)c2)c1 [phenol 3G]
pIC50 ([5]; IC50, Table 34, final DMSO concentration 0.40%): 5.19 | IC50 ([5]; final DMSO concentration 0.40%): 6440 nM
